Assay results published in patent US20260198493A1, “HYDRAZIDE COMPOUND AND AGRICULTURAL/HORTICULTURAL FUNGICIDE” (Nippon Soda Co., Ltd., priority 2022, published 2026).

How the values were obtained:
Botrytis cinerea [1] = type: cell-based; settings: 120 h, 25 ppm by volume, Vogel medium, 20° C., five days, dark, read-out: growth inhibition ratio
Botrytis cinerea [2] = assay: Control test of cucumber gray mold (sprayed young cucumber seedlings); type: in vivo; settings: 96 h, four days after inoculation; for pest or weed control at 25 ppm: 25 ppm by mass spray; for pest or weed control at 125 ppm: 125 ppm by mass spray
Experimental: Then, the drug liquid was sprayed onto young cucumber seedlings cultivated in a nursery pot (variety “Jihai”-based, cotyledon stage), and then air-dried. […] They were left still in a moist room at 20° C. Four days after inoculation, leaves of the young cucumber seedlings were visually observed, and the control value was calculated from the lesion area ratio in accordance with the following equation. [formula]

Venturia inaequalis = assay: Control test of apple scab disease (sprayed young apple seedlings); type: in vivo; settings: 125 ppm by mass spray, 12 to 14 days after inoculation
Experimental: [formula] […] Then, the drug liquid was sprayed onto young apple seedlings cultivated in a nursery pot (variety “Orin”, three-to four-leaf stage), and then air-dried. Thereafter, conidiospores of fungi causing apple scab disease (Venturia inaequalis) were inoculated thereon (treated area). As a control, the conidiospores were inoculated in a similar manner to the above on young apple seedlings unsprayed with the drug liquid (untreated area). They were left still at 20° C. in a moist room with light and dark cycles repeated every 12 hours. 12 Days to 14 days after inoculation, leaves of young apple seedlings were visually observed, and the control value was calculated from the lesion area ratio in accordance with the equation used in the control test of cucumber gray mold.

[3] = system: Erysiphe graminis f.sp.tritici; assay: Control test of wheat powdery mildew disease (sprayed young wheat seedlings); type: in vivo; settings: Blumeria graminis, 144 h, 125 ppm by mass spray, six days after inoculation
Source text: [formula] […] Then, the drug liquid was sprayed onto young wheat seedlings cultivated in a nursery pot (variety “Chihoku”, one-to two-leaf stage), and then air-dried. Thereafter, conidiospores of fungi causing wheat powdery mildew disease (Erysiphe graminis f.sp.tritici) were sprinkled on the young wheat seedlings to inoculate them (treated area). As a control, the conidiospores of fungi causing wheat powdery mildew disease (Erysiphe graminis f.sp.tritici) were sprinkled on young wheat seedlings unsprayed with the drug liquid (untreated area). They were left still in a greenhouse at 20° C. Six days after inoculation, leaves of young wheat seedlings were visually observed, and the lesion area ratio was determined to calculate the control value in a similar manner to the previous test.

Colletotrichum acutatum = assay: Fungicidal effect test against fungi causing apple anthracnose; settings: 96 h, read-out: growth inhibition ratio
Glomerella cingulata = assay: Fungicidal effect test against fungi causing grape ripe rot disease; settings: Colletotrichum gloeosporioides, 72 h, read-out: growth inhibition ratio

CC(=O)N(Cc1ccc(C)cc1C)NC(=O)c1cc(C)ncc1Oc1cccc(C2CC2)c1F [b-9, N′-acetyl-5-(3-cyclopropyl-2-fluorophenoxy)-N′-(2,4-dimethylbenzyl)-2-methylisonicotinohydrazide]
≥ 75%: inhibition of growth at 25 ppm (Botrytis cinerea [1]) | pest or weed control at 25 ppm (Botrytis cinerea [2]) | pest or weed control at 125 ppm (Botrytis cinerea [2]) | pest or weed control at 125 ppm (Venturia inaequalis) | pest or weed control at 125 ppm [3] | inhibition of growth at 25 ppm (Colletotrichum acutatum) | inhibition of growth at 25 ppm (Glomerella cingulata)

COC(=O)N(Cc1ccc(C(F)(F)F)cc1C)NC(=O)c1cc(C)nnc1Oc1cccc(C2CC2)c1F [b-109]
≥ 75%: inhibition of growth at 25 ppm (Botrytis cinerea [1]) | pest or weed control at 25 ppm (Botrytis cinerea [2]) | pest or weed control at 125 ppm (Botrytis cinerea [2]) | pest or weed control at 125 ppm (Venturia inaequalis) | pest or weed control at 125 ppm [3] | inhibition of growth at 25 ppm (Colletotrichum acutatum) | inhibition of growth at 25 ppm (Glomerella cingulata)

CC(=O)N(Cc1ccc(C)cc1C)NC(=O)c1cc(C)nnc1Oc1cccc(C2CC2)c1F [b-5, N′-acetyl-3-(3-cyclopropyl-2-fluorophenoxy)-N′-(2,4-dimethylbenzyl)-6-methylpyridazine-4-carbohydrazide]
≥ 75%: inhibition of growth at 25 ppm (Botrytis cinerea [1]) | pest or weed control at 25 ppm (Botrytis cinerea [2]) | pest or weed control at 125 ppm (Botrytis cinerea [2]) | pest or weed control at 125 ppm (Venturia inaequalis) | pest or weed control at 125 ppm [3] | inhibition of growth at 25 ppm (Colletotrichum acutatum) | inhibition of growth at 25 ppm (Glomerella cingulata)

COC(=O)N(Cc1ccc(OC(F)(F)F)cc1C)NC(=O)c1cc(C)nnc1Oc1cccc(C2CC2)c1F [b-158]
≥ 75%: inhibition of growth at 25 ppm (Botrytis cinerea [1]) | pest or weed control at 25 ppm (Botrytis cinerea [2]) | pest or weed control at 125 ppm (Botrytis cinerea [2]) | pest or weed control at 125 ppm (Venturia inaequalis) | pest or weed control at 125 ppm [3] | inhibition of growth at 25 ppm (Colletotrichum acutatum) | inhibition of growth at 25 ppm (Glomerella cingulata)

CCCC(=O)N(Cc1ccc(C)cc1C)NC(=O)c1cc(C)nnc1Oc1cccc(C2CC2)c1F [b-20]
≥ 75%: inhibition of growth at 25 ppm (Botrytis cinerea [1]) | pest or weed control at 125 ppm (Botrytis cinerea [2]) | pest or weed control at 125 ppm (Venturia inaequalis) | pest or weed control at 125 ppm [3] | inhibition of growth at 25 ppm (Colletotrichum acutatum) | inhibition of growth at 25 ppm (Glomerella cingulata)

COC(=O)N(Cc1ccc(OC)cc1C)NC(=O)c1c(Cl)cncc1Oc1cccc(C2CC2)c1F [b-206]
≥ 75%: inhibition of growth at 25 ppm (Botrytis cinerea [1]) | pest or weed control at 25 ppm (Botrytis cinerea [2]) | pest or weed control at 125 ppm (Botrytis cinerea [2]) | pest or weed control at 125 ppm (Venturia inaequalis) | pest or weed control at 125 ppm [3] | inhibition of growth at 25 ppm (Colletotrichum acutatum) | inhibition of growth at 25 ppm (Glomerella cingulata)

COC(=O)N(Cc1ccc(C)cc1C)NC(=O)c1c(Oc2cccc(Br)c2F)nnc2c1CCC2 [b-92, Methyl 2-(3-(3-bromo-2-fluorophenoxy)-6,7-dihydro-5H-cyclopenta[c]pyridazine-4-carbonyl)-1-(2,4-dimethylbenzyl)hydrazine-1-carboxylate]
≥ 75%: inhibition of growth at 25 ppm (Botrytis cinerea [1]) | pest or weed control at 25 ppm (Botrytis cinerea [2]) | pest or weed control at 125 ppm (Botrytis cinerea [2]) | pest or weed control at 125 ppm (Venturia inaequalis) | pest or weed control at 125 ppm [3] | inhibition of growth at 25 ppm (Colletotrichum acutatum) | inhibition of growth at 25 ppm (Glomerella cingulata)

COC(=O)N(Cc1ccc(C)cc1C)NC(=O)c1cc(Cl)nnc1Oc1ccc2c(c1)OCO2 [b-81]
≥ 75%: inhibition of growth at 25 ppm (Botrytis cinerea [1]) | pest or weed control at 125 ppm (Botrytis cinerea [2]) | pest or weed control at 125 ppm (Venturia inaequalis) | pest or weed control at 125 ppm [3] | inhibition of growth at 25 ppm (Colletotrichum acutatum) | inhibition of growth at 25 ppm (Glomerella cingulata)

COC(=O)N(Cc1ccc(F)cc1C)NC(=O)c1cc(C)nnc1Oc1cccc(C2CC2)c1F [b-121]
≥ 75%: inhibition of growth at 25 ppm (Botrytis cinerea [1]) | pest or weed control at 25 ppm (Botrytis cinerea [2]) | pest or weed control at 125 ppm (Botrytis cinerea [2]) | pest or weed control at 125 ppm (Venturia inaequalis) | pest or weed control at 125 ppm [3] | inhibition of growth at 25 ppm (Colletotrichum acutatum) | inhibition of growth at 25 ppm (Glomerella cingulata)

Cc1ccc(CN(NC(=O)c2cc(C)nnc2Oc2cccc(C3CC3)c2F)C(=O)OCC2CC2)c(C)c1 [b-183]
≥ 75%: inhibition of growth at 25 ppm (Botrytis cinerea [1]) | pest or weed control at 25 ppm (Botrytis cinerea [2]) | pest or weed control at 125 ppm (Botrytis cinerea [2]) | pest or weed control at 125 ppm (Venturia inaequalis) | pest or weed control at 125 ppm [3] | inhibition of growth at 25 ppm (Colletotrichum acutatum) | inhibition of growth at 25 ppm (Glomerella cingulata)

COC(=O)N(Cc1ccc(C)cc1C)NC(=O)c1c(Cl)cncc1Oc1cccc(C2CC2)c1F [b-205]
≥ 75%: inhibition of growth at 25 ppm (Botrytis cinerea [1]) | pest or weed control at 125 ppm (Botrytis cinerea [2]) | pest or weed control at 125 ppm (Venturia inaequalis) | pest or weed control at 125 ppm [3] | inhibition of growth at 25 ppm (Colletotrichum acutatum) | inhibition of growth at 25 ppm (Glomerella cingulata)

COC(=O)N(Cc1ccc(C)cc1C)NC(=O)c1cc(C)nnc1Oc1cncc(Br)c1 [b-96]
≥ 75%: inhibition of growth at 25 ppm (Botrytis cinerea [1]) | pest or weed control at 125 ppm (Botrytis cinerea [2]) | pest or weed control at 125 ppm (Venturia inaequalis) | pest or weed control at 125 ppm [3] | inhibition of growth at 25 ppm (Colletotrichum acutatum) | inhibition of growth at 25 ppm (Glomerella cingulata)

Cc1ccc(CN(NC(=O)c2cc(C)nnc2Oc2cccc(C3CC3)c2F)C(=O)C(C)C)c(C)c1 [b-18]
≥ 75%: inhibition of growth at 25 ppm (Botrytis cinerea [1]) | pest or weed control at 125 ppm (Botrytis cinerea [2]) | pest or weed control at 125 ppm (Venturia inaequalis) | pest or weed control at 125 ppm [3] | inhibition of growth at 25 ppm (Colletotrichum acutatum) | inhibition of growth at 25 ppm (Glomerella cingulata)

COC(=O)N(Cc1ccccc1C)NC(=O)c1cc(C)nnc1Oc1cccc(C2CC2)c1F [b-103]
≥ 75%: inhibition of growth at 25 ppm (Botrytis cinerea [1]) | pest or weed control at 25 ppm (Botrytis cinerea [2]) | pest or weed control at 125 ppm (Botrytis cinerea [2]) | pest or weed control at 125 ppm (Venturia inaequalis) | pest or weed control at 125 ppm [3] | inhibition of growth at 25 ppm (Colletotrichum acutatum) | inhibition of growth at 25 ppm (Glomerella cingulata)

COC(=O)N(Cc1cccc(C)c1)NC(=O)c1cc(C)nnc1Oc1cccc(C2CC2)c1F [b-159]
≥ 75%: inhibition of growth at 25 ppm (Botrytis cinerea [1]) | pest or weed control at 25 ppm (Botrytis cinerea [2]) | pest or weed control at 125 ppm (Botrytis cinerea [2]) | pest or weed control at 125 ppm (Venturia inaequalis) | pest or weed control at 125 ppm [3] | inhibition of growth at 25 ppm (Colletotrichum acutatum) | inhibition of growth at 25 ppm (Glomerella cingulata)

COC(=O)N(Cc1ccc(C)cc1)NC(=O)c1cc(C)nnc1Oc1cccc(C2CC2)c1F [b-101]
≥ 75%: inhibition of growth at 25 ppm (Botrytis cinerea [1]) | pest or weed control at 25 ppm (Botrytis cinerea [2]) | pest or weed control at 125 ppm (Botrytis cinerea [2]) | pest or weed control at 125 ppm (Venturia inaequalis) | pest or weed control at 125 ppm [3] | inhibition of growth at 25 ppm (Colletotrichum acutatum) | inhibition of growth at 25 ppm (Glomerella cingulata)
